In ChEMBL document CHEMBL1145843 (J Med Chem, 2003) one finds NI, IC50 and Ka data, which are given here for two compounds.

Calls of active or inactive are those of the source.

The test system of assay [1] is Plasmodium falciparum. Description: Growth inhibition against Plasmodium falciparum NF54; Not active <= 3000nM. The format is functional, organism-based.
A short description of assay [2]: Inhibitory concentration of compound for inhibiting hematin polymerization. It counts as functional.
Assay [3] relates to Plasmodium falciparum. The assay is described as follows: Growth inhibition against Plasmodium falciparum K1; Not active <= 3000nM. It counts as functional, organism-based.
Assay [4] can be described thus: Hematin binding affinity of compound was determined as a measure of inhibiting hematin polymerization.

Broadly, the IC50 is the concentration at which inhibition is half-maximal. Read a low IC50 as inhibition by little substance. `CCN(CC)CCCC(C)Nc1cccc2cc(Cl)ccc12` (configuration not stated): the NI entry in the assay on Plasmodium falciparum [1] and in the assay on Plasmodium falciparum [3] was “inactive” each time. In addition, the IC50 in assay [2] is greater than 2500 µM.

Turning to `CCN(CC)CCCC(C)Cc1ccnc2cc(Cl)ccc12` (configuration not stated), the NI result with Plasmodium falciparum [1] and in the assay with Plasmodium falciparum [3] was “inactive” each time. Besides, the Ka in assay [4] came out at 84000 M⁻¹. The same compound came in with an IC50 in assay [2] of 1500 µM.
